Measured values as given in ChEMBL document CHEMBL1141354, “Isolation and structures of erylosides from the Carribean sponge Erylus goffrilleri” (J Nat Prod, 2007).

tested on: Ehrlich; experiment: Cytotoxicity against albino mouse Ehrlich carcinoma cells after 1 hr; type: functional, cell-based

With CC(=O)N[C@H]1[C@H](O[C@H]2[C@H](O[C@H]3CC[C@]4(C)C5=C(CC[C@H]4C3(C)C)[C@]3(C(=O)O)CCC([C@H](C)CCC(C)(OC(C)=O)C(C)C)[C@@]3(C)CC5)O[C@H](CO)[C@H](O)[C@@H]2O)O[C@H](CO)[C@@H](O)[C@@H]1O (stereo partly specified) [ERYLOSIDE F6] as the compound, how does the IC50 read?
Its IC50 is 20 µM.

For C[C@H](CCC(C)(O)C(C)(C)C)C1CC[C@@]2(C(=O)O)C3=C(CC[C@]12C)[C@@]1(C)CC[C@H](O[C@@H]2O[C@H](CO)[C@H](O)[C@H](O[C@@H]4O[C@H](CO)[C@@H](O)[C@H](O)[C@H]4O)[C@H]2O)C(C)(C)[C@@H]1CC3 (stereo partly specified) [ERYLOSIDE F7], which IC50 is on record?
The IC50 was 20 µM.

With C[C@H](CCC(C)(O)C(C)(C)C)C1CC[C@@]2(C(=O)O)C3=C(CC[C@]12C)[C@@]1(C)CC[C@H](O[C@@H]2O[C@H](CO)[C@H](O)[C@H](O)[C@H]2O)C(C)(C)[C@@H]1CC3 (stereo partly specified) [ERYLOSIDE R] as the compound, how does the IC50 read?
Its IC50 is 20 µM.

For CC(=O)OC(C)(CC[C@@H](C)C1CC[C@@]2(C(=O)O)C3=C(CC[C@]12C)[C@@]1(C)CC[C@H](O[C@@H]2O[C@H](CO)[C@H](O)[C@H](O)[C@H]2O)C(C)(C)[C@@H]1CC3)C(C)C (stereo partly specified) [ERYLOSIDE S], which IC50 is on record?
Its IC50 is 20 µM.

How did the IC50 turn out when C[C@H](CCC(C)(O)C(C)(C)C)C1CC[C@]23C(=O)O[C@]4(CC[C@]12C)C3=CC[C@H]1C(C)(C)[C@@H](O[C@@H]2O[C@H](CO)[C@H](O)[C@H](O)[C@H]2O)CC[C@@]14C (stereo partly specified) [ERYLOSIDE T] was run?
Its IC50 is 20 µM.

Which IC50 does the source give for C[C@H](CCC(C)(O)C(C)(C)C)C1CC[C@@]2(C(=O)O)C3=C(CC[C@]12C)[C@@]1(C)CC[C@H](O[C@@H]2OC[C@H](O)[C@H](O[C@@H]4OC[C@@H](O)[C@H](O)[C@H]4O)[C@H]2O[C@@H]2O[C@H](CO)[C@H](O)[C@H](O)[C@H]2O)C(C)(C)[C@@H]1CC3 (stereo partly specified) [ERYLOSIDE V] here?
The IC50 was 20 µM.
